Converted amounts (≈) assume the structure as drawn.
Columns and labels:
[1] = system: Mycobacterium tuberculosis; assay: Antimycobacterial activity against Mycobacterium tuberculosis H37Rv ATCC 27294 incubated for 5 days by microplate alamar blue assay; type: functional; settings: H37Rv ATCC 27294, 120 h, time 5 day
[2] = system: Mycobacterium tuberculosis; assay: Antimycobacterial activity against Mycobacterium tuberculosis H37Ra; type: functional
[3] = system: Mycobacterium tuberculosis; assay: Antimycobacterial activity against Mycobacterium tuberculosis H37Rv incubated for 7 days by microplate alamar blue assay; type: functional; settings: 168 h, time 7 day
[4] = system: Mycobacterium tuberculosis; assay: Antimycobacterial activity against Mycobacterium tuberculosis H37Rv; type: functional
[5] = system: Mycobacterium tuberculosis; assay: Antimycobacterial activity against Mycobacterium tuberculosis H37Rv assessed as growth inhibition at 6.25 ug/ml by microplate alamar blue assay relative to control; type: functional; settings: read-out: GI
[6] = system: Mycobacterium tuberculosis; assay: Antimycobacterial activity against Mycobacterium tuberculosis H37Rv assessed as bacterial inhibition at 25 ug/ml by microplate alamar blue assay relative to control; type: functional
[7] = system: Mycobacterium tuberculosis; assay: Antimycobacterial activity against Mycobacterium tuberculosis H37Rv assessed as growth inhibition at 50 ug/ml by Lowenstein-Jensen method relative to control; type: functional; settings: read-out: GI
[8] = system: Mycobacterium tuberculosis; assay: Antimycobacterial activity against Mycobacterium tuberculosis H37Rv incubated for 5 days by microplate alamar blue assay; type: functional; settings: 120 h, time 5 day
[9] = system: Mycobacterium tuberculosis; assay: Antimycobacterial activity against Mycobacterium tuberculosis H37Rv by microplate alamar blue assay; type: functional
[10] = system: Mycobacterium tuberculosis; assay: Antimycobacterial activity against Mycobacterium tuberculosis H37Rv measured after 14 days by test tube dilution technique; type: functional; settings: 336 h, time 14 day
[11] = system: Mycobacterium tuberculosis; assay: Antimycobacterial activity against Mycobacterium tuberculosis H37Rv measured after 21 days by test tube dilution technique; type: functional; settings: 504 h, time 21 day
[12] = system: Mycobacterium tuberculosis; assay: Antimycobacterial activity against Mycobacterium tuberculosis H37Ra 7131 incubated for 21 days by broth dilution method; type: functional; settings: H37Ra 7131, 504 h, time 21 day
[13] = system: Mycobacterium tuberculosis; assay: Antimycobacterial activity against Mycobacterium tuberculosis H37Ra ATCC 25177 measured on 8th to 12th day by XTT reduction menadione assay; type: functional; settings: time 8-12 day
[14] = system: Mycobacterium tuberculosis; assay: Antimycobacterial activity against Mycobacterium tuberculosis H37Rv ATCC27294 incubated for 7 days by microplate alamar blue assay; type: functional; settings: H37Rv ATCC 27294, 168 h, time 7 day
[15] = Selectivity index, ratio of IC50 for African green monkey Vero cells to MIC for antitubercular activity against Mycobacterium tuberculosis H37Ra ATCC 25177; type: toxicity
[16] = system: Mycobacterium tuberculosis; assay: Bactericidal activity against Mycobacterium tuberculosis H37Ra ATCC 25177 assessed as ratio of MBC to MIC; type: functional
[17] = system: Mycobacterium tuberculosis; assay: Antimycobacterial activity against Mycobacterium tuberculosis H37Ra ATCC 25177 incubated for 7 days by microplate alamar blue assay; type: functional; settings: H37Ra ATCC 25177, 168 h, time 7 day

## CN(C)c1ccc(C2SCC(=O)N2NC(=O)c2ccncc2)cc1 (stereo not drawn)
[1]
  MIC: 5 µg/mL (≈ 14.6 µM)

## O=C1NC(=S)S/C1=C\c1ccccc1O
[2]
  MIC: 95 µg/mL (≈ 400 µM)

## COc1ccc(C2SCC(=O)N2c2nnc(S)s2)cc1OC (stereo not drawn)
[3]
  MIC: 1.6 µg/mL (≈ 4.5 µM)

## COc1cc(-c2cc(-c3ccc(Cl)cc3)nc(NC(=O)NN3C(=O)CSC3c3ccccc3O)n2)cc(OC)c1OC (stereo not drawn)
[4]
  MIC: 100 µg/mL (≈ 164 µM)

## CCOC(=O)C(C(C)C)N1C(=O)C(C)SC1c1cccc(OC)c1O (stereo not drawn)
[2]
  MIC: 25 µg/mL (≈ 68 µM)

## O=C1NC(=S)S/C1=C\c1c(O)ccc2ccccc12
[2]
  MIC: 95 µg/mL (≈ 331 µM)

## O=C(NN1C(=O)CSC1c1ccc([N+](=O)[O-])cc1)c1ccncc1 (stereo not drawn)
[1]
  MIC: 3.12 µg/mL (≈ 9.06 µM)

## O=C1CSC(c2ccc(OCc3ccccc3)cc2)N1NC(=O)C(O)(c1ccccc1)c1ccccc1 (stereo not drawn)
[5]
  inhibition of growth at 6.25 µg/mL: 98%

## O=C1NC(=S)S/C1=C\c1ccc(/N=N/c2ccccc2)cc1O
[2]
  MIC: 95 µg/mL (≈ 278 µM)

## O=C1CSC(c2ccc(Cl)cc2)N1NC(=O)C(O)(c1ccccc1)c1ccccc1 (stereo not drawn)
[5]
  inhibition of growth at 6.25 µg/mL: 99%

## Cc1ccccc1/N=N/c1ccc(/C=C2\SC(=S)NC2=O)c(O)c1
[2]
  MIC: 95 µg/mL (≈ 267 µM)

## COc1ccc(/N=N/c2ccc(/C=C3\SC(=S)NC3=O)c(O)c2)cc1
[2]
  MIC: 95 µg/mL (≈ 256 µM)

## CCCCCCCCCCCCN1C(=O)C(CC(=O)O)SC12CCN(C(=O)C(N)C(C)CC)CC2 (stereo not drawn)
[6]
  inhibition at 25 µg/mL: 97%

## O=C1CSC(c2ccccc2)N1C(=O)NCCCN1c2ccccc2Sc2ccccc21 (stereo not drawn)
[7]
  inhibition of growth at 50 µg/mL: 75%

## O=C(O)c1cn(C2CC2)c2cc(N3CCNCC3)c(F)cc2c1=O [CIPROFLOXACIN]
[8]
  MIC: 3.12 µg/mL (≈ 9.42 µM)
[3]
  MIC: 3.12 µg/mL (≈ 9.42 µM)
[9]
  MIC: 3.12 µg/mL (≈ 9.42 µM)

## CC(C)N1C(=O)CS/C1=N/NC(=O)COc1cnccn1
[10]
  MIC: > 100 µg/mL
[11]
  MIC: > 100 µg/mL

## CC1SC(c2ccc(Cl)cc2)N(NC(=O)C(O)(c2ccccc2)c2ccccc2)C1=O (stereo not drawn)
[5]
  inhibition of growth at 6.25 µg/mL: 99%

## N=C1SC(Br)(C(Br)c2ccc([N+](=O)[O-])cc2)C(=O)N1NC(=O)c1ccncc1 (stereo not drawn)
[12]
  MIC: 11 µg/mL (≈ 20.8 µM)

## O=C(COc1cnccn1)N/N=C1/SCC(=O)N1c1ccc(Cl)cc1Cl
[10]
  MIC: > 100 µg/mL
[11]
  MIC: > 100 µg/mL

## COc1ccc(/C=C2\SC(=S)N(Cc3nnc(-c4cccnc4SCc4ccccc4)o3)C2=O)cc1
[7]
  inhibition of growth at 50 µg/mL: 99%

## CCOC(=O)C(C(C)C)N1C(=O)C(C)SC1c1ccc2c(c1)c1ccccc1n2CC (stereo not drawn)
[2]
  MIC: 25 µg/mL (≈ 57 µM)

## COc1cc(C2SCC(=O)N2NC(=O)c2ccncc2)ccc1O (stereo not drawn)
[1]
  MIC: 0.31 µg/mL (≈ 0.898 µM)

## Cc1cc(NS(=O)(=O)c2ccc(N3C(=O)CSC3c3ccc(Cl)cc3)cc2)no1 (stereo not drawn)
[13]
  IC90: 0.43 µg/mL (≈ 0.956 µM)

## N#Cc1ccc(C2SCC(=O)N2NC(=O)C(O)(c2ccccc2)c2ccccc2)cc1 (stereo not drawn)
[5]
  inhibition of growth at 6.25 µg/mL: 98%

## CC/N=C1\SC(=O)C(=O)N1NC(=O)c1ccncc1
[12]
  MIC: 19.5 µg/mL (≈ 70.1 µM)

## O=C(NN1C(=O)CSC1c1cccc(O)c1)c1cc(O)c(O)c(O)c1 (stereo not drawn)
[14]
  MIC: 0.79 µg/mL (≈ 2.18 µM)

## O=C(COc1cnccn1)N/N=C1/SCC(=O)N1c1ccc(Cl)cc1
[10]
  MIC: > 100 µg/mL
[11]
  MIC: > 100 µg/mL

## COc1ccc(C2SCC(=O)N2c2n[nH]c(=S)s2)cc1 (stereo not drawn)
[3]
  MIC: 6.25 µg/mL (≈ 19.2 µM)

## COc1ccc(C2SCC(=O)N2NC(=O)Nc2nc(-c3ccc(Cl)cc3)cc(-c3cc(OC)c(OC)c(OC)c3)n2)cc1 (stereo not drawn)
[4]
  MIC: 100 µg/mL (≈ 161 µM)

## O=C(NN1C(=O)CSC1c1ccccc1O)c1cc(O)c(O)c(O)c1 (stereo not drawn)
[14]
  MIC: 0.79 µg/mL (≈ 2.18 µM)

## NC(=S)N/N=C/c1ccc(OC(=O)CC2SC(=O)NC2=O)c(Br)c1 (stereo not drawn)
[15]
  selectivity ratio: > 10
[16]
  Ratio: 2
[17]
  MIC: 0.031 µg/mL (≈ 0.0719 µM)

## CCCCCCCCN1C(=O)CSC12CCCCC2
[6]
  inhibition at 25 µg/mL: 96%

## NC(=S)N/N=C/c1ccc(OC(=O)CC2SC(=O)NC2=O)cc1 (stereo not drawn)
[15]
  selectivity ratio: > 10
[16]
  Ratio: 2
[17]
  MIC: 0.031 µg/mL (≈ 0.088 µM)

## O=C1CSC(c2ccc(O)cc2)N1c1nnc(S)s1 (stereo not drawn)
[3]
  MIC: 12.5 µg/mL (≈ 40.1 µM)

## CCCCN1C(=O)CS/C1=N/NC(=O)COc1cnccn1
[10]
  MIC: > 100 µg/mL
[11]
  MIC: > 100 µg/mL

## CC1SC(c2ccc(C#N)cc2)N(NC(=O)C(O)(c2ccccc2)c2ccccc2)C1=O (stereo not drawn)
[5]
  inhibition of growth at 6.25 µg/mL: 99%

## CCCCCCCCCCCCN1C(=O)C(CC(=O)O)SC12CCCCCCCC2 (stereo not drawn)
[6]
  inhibition at 25 µg/mL: 96%

## Cc1cc(NS(=O)(=O)c2ccc(N3C(=O)CSC3c3c(Cl)cccc3Cl)cc2)no1 (stereo not drawn)
[13]
  IC90: 0.43 µg/mL (≈ 0.888 µM)

## NC(=S)N/N=C/c1ccc(OC(=O)/C=C2\SC(=O)NC2=O)c(Cl)c1
[15]
  selectivity ratio: > 10
[16]
  Ratio: 2
[17]
  MIC: 0.031 µg/mL (≈ 0.0806 µM)

## Cc1cc(NS(=O)(=O)c2ccc(N3C(=O)CSC3c3ccc(C(F)(F)F)cc3)cc2)no1 (stereo not drawn)
[13]
  IC90: 0.43 µg/mL (≈ 0.889 µM)

## CC1SC(c2ccc(OCc3ccccc3)cc2)N(NC(=O)C(O)(c2ccccc2)c2ccccc2)C1=O (stereo not drawn)
[5]
  inhibition of growth at 6.25 µg/mL: 98%

From ChEMBL document CHEMBL4813957, “Antitubercular properties of thiazolidin-4-ones - A review” (Eur J Med Chem, 2021)
